Data reported in publication PMC4642645, “Oxacillin sensitization of methicillin-resistant Staphylococcus aureus and methicillin-resistant Staphylococcus pseudintermedius by antisense peptide nucleic acids in vitro” (BMC Microbiology, 2015).
Where “and” joins values, the source holds several entries; their conditions need not be identical. Equal entries are not always repeated.

How the values were obtained:
HH-1 [1] = assay: Oxacillin MIC and sensitization broth growth assay (broth microdilution, CLSI); format: cell-based, Staphylococcus pseudintermedius (MRSP); details: for Oxacillin MIC with anti-mecA PNA treatment: HH-1, 2.5 μM PNA; for Sensitization to oxacillin in broth microdilution assays: HH-1, PNAs with EJH-L1 or HIV-1 Tat carrier, data not shown
Experimental: (§1) The MRSA strain NCTC 13142 from Public Health England Culture Collections is a UK epidemic strain type EMRSA-15, SCCmec Type IV, and the MRSP strain HH-1 was isolated from a canine skin infection and is ST71, SCCmecII-III [19]. Bacteria were cultured on Columbia base agar (Oxoid, Basingstoke, UK) supplemented with 5 % horse blood (Oxoid) and 6 μg/ml oxacillin (Sigma Aldrich, UK) at 35 °C for 20 h. Overnight broth cultures were prepared from single bacterial colonies inoculated in 3 ml Mueller Hinton broth (MHB, Oxoid) supplemented with 6 μg/ml oxacillin and incubated at 35 °C for 20 h at 180 rpm on a rotary shaker.
(§2) The MIC of oxacillin was determined by broth microdilution according to CLSI guidelines. Briefly, overnight broth cultures of MRSA and MRSP were standardized to OD625 = 0.08–0.09 (equivalent to 10^8 CFU/ml) in MHB and further diluted 100-fold to obtain 10^6 CFU/ml. The bacterial suspension was then inoculated at 50 μl per well to a final concentration of 5 × 10^5 CFU/ml. Two-fold serial dilutions of oxacillin (2–512 μg/ml) were added to bacterial cultures at 50 μl per well to a final volume of 100 μl per well, and 96 well plates were incubated at 35 °C for 24 h. MICs were visually scored.
(§3) Overnight broth cultures were adjusted to 5 × 10^5 CFU/ml per well of a 96 well plate as described above and used either in a broth growth assay or a viable count assay. The broth growth assay was used as an initial screen of PNA efficacy because it was simple to carry out. […] Anti-mecA PNAs were added at either 2.5 or 5 μM. After incubation at 35 °C for 24 h, the MIC of oxacillin in combination with the PNAs in broth cultures were scored visually as recommended by CLSI guidelines.

NCTC 13142 [2] = assay: as above; format: cell-based, Staphylococcus aureus (MRSA); details: for Oxacillin MIC with anti-mecA PNA treatment: NCTC 13142, 5 μM PNA; for Sensitization to oxacillin in broth microdilution assays: NCTC 13142, PNAs with EJH-L1 or HIV-1 Tat carrier, data not shown
Experimental: as §1, §2, §3

HH-1 [3] = assay: Oxacillin sensitization viable count assay (CFU on oxacillin plates); format: cell-based, Staphylococcus pseudintermedius (MRSP); details: for Sensitization to oxacillin (CFU reduction), result in words: HH-1, A73 and scrA 1, 2.5, 5 μM, Z46 0.5, 1, 2.5 μM, 6 h, plated on 16 μg/ml oxacillin, n = 3
Experimental: (§4) The viable count assay is more sensitive than the broth assay and was used to assess the effects of PNAs that performed well in the initial screen described above. In the viable count assay, 5 × 10^5 CFU/ml per well of culture was treated either with 2.5, 5 and 7.5 μM of PNA for NCTC 13142, or 1, 2.5 and 5 μM of PNA for HH-1 in MHB at 35 °C for 6 h. […] Agar plates were incubated at 35 °C for 24 h, and dilutions resulting in 30–300 colonies per plate were used to determine the viable count. Experimental repeats were carried out on separate days, and reductions in CFU of treated cultures were normalized to CFU of the untreated control culture on the day. Statistical analysis of CFU reductions was carried out with the paired Student’s t-Test in Microsoft Excel.

NCTC 13142 [4] = assay: as above; format: cell-based, Staphylococcus aureus (MRSA); details: for Sensitization to oxacillin (CFU reduction), result in words: NCTC 13142, PNA 2.5, 5, 7.5 μM (Z46: 7.5 μM), 6 h, plated on 16 μg/ml oxacillin, n = 3
Experimental: as §4

mecA mRNA [5] = assay: mecA mRNA level by RT-qPCR; format: cell-based, Staphylococcus pseudintermedius (MRSP) HH-1; details: HH-1, 2.5 μM PNA, no oxacillin, normalized to proC and pyk, average, n = 3
Experimental: (§5) Growth of cultures in a 96 well plate was monitored by reading the optical density at 550 nm every 5 min, after shaking for 5 s in a microplate reader (Spectramax 340PC, […]). Cultures were harvested when the untreated control culture increased in OD550 ≈ 0.1. Cultures with the same PNA treatment but in different wells across the 96 well plate were pooled for total RNA extraction and DNase I treatment (Ribopure™ Bacteria kit, Life Technologies). RNA was checked for gDNA contamination by qPCR using gyrA primers (Additional file 1: Table S1) and SsoFast™ EvaGreen® Supermix (Bio-Rad) before cDNA synthesis using 50 ng RNA and iScript™ Reverse Transcription Supermix (Bio-Rad). Samples of cDNA were diluted 10-fold and 4 μl used in each qPCR reaction. Non-template controls were included for each primer pair in each run, and technical duplicates for each sample were included in each run.
(§6) Primer pairs for qPCR were designed by Primer3 with a Tm of 60 °C and product sizes of 100–200 bp (Additional file 1: Table S1). […] Primer efficiencies were determined using 10-fold serial dilutions of cDNA (10 pg-1 μg). […]
Total RNA and cDNA were prepared as described above. Raw Cq values were analysed in qbase + (Biogazelle, Belgium) with user-defined primer efficiencies (Additional file 1: Table S1) and expression stabilities (M value) of each candidate reference gene fabD, gyrA, proC, pta, pyk, rho, sodA, and tpiA were calculated as the average pairwise variation for each gene with all other tested genes. […] Stepwise exclusion of the gene with the highest M value allowed ranking of the tested genes according to their expression stability, and from this the optimal number of reference genes was calculated. […] Relative mRNA levels were then calculated as induced normalized Cq/uninduced normalized Cq, and analysed with paired Student’s t-Test in Microsoft Excel.

mecA mRNA [6] = assay: mecA mRNA level by RT-qPCR; format: cell-based, Staphylococcus aureus (MRSA) NCTC 13142
Experimental: as §5, with “Non-template controls were included for each primer pair in each run, and technical duplicates for each sample were included in each run.” left out
as §6
Total RNA and cDNA were prepared as described above. Raw Cq values were analysed in qbase + (Biogazelle, Belgium) with user-defined primer efficiencies (Additional file 1: Table S1) and expression stabilities (M value) of each candidate reference gene fabD, gyrA, proC, pta, pyk, rho, sodA, and tpiA were calculated as the average pairwise variation for each gene with all other tested genes. […]

NCTC 13142 [7] = assay: Growth inhibition assay (OD550 growth curves); format: cell-based, Staphylococcus aureus (MRSA); details: NCTC 13142, MHB with 6 μg/ml oxacillin, PNA 0–7.5 μM, 35 °C, 6 h, OD550, n = 3
Experimental: Anti-ftsZ PNAs were tested for effects on growth. Overnight MHB cultures were adjusted to 5 × 10^5 CFU/ml per well of a 96 well plate in MHB supplemented with 6 μg/ml oxacillin as described above. Anti-ftsZ PNA was added to final concentrations of 0, 1, 2.5, 5, 7.5 μM and incubated in a microplate reader (Spectramax 340PC, Molecular Devices) at 35 °C for 6 h. The optical density of the cultures was monitored at 550 nm with readings every 5 min after shaking for 5 s.

[8] = MHB, 35 °C, 24 h, scored visually, n=2

In the case of Cc1onc(-c2ccccc2)c1C(=O)N[C@@H]1C(=O)N2[C@@H]1SC(C)(C)[C@@H]2C(=O)O [Oxacillin, oxacillin], the “Oxacillin MIC” value (HH-1 [1]; HH-1, 0 μM PNA, MHB, 35 °C, 24 h, scored visually, n=2) is reported as 512 µg/mL, the MIC (HH-1 [1]; Staphylococcus pseudintermedius, 24 h, HH-1, 0 μM PNA, MHB, 35 °C, scored visually, n=2) is reported as at least 256 µg/mL and the “Oxacillin MIC” value (NCTC 13142 [2]; NCTC 13142, 0 μM PNA, MHB, 35 °C, 24 h, scored visually, n=2) is reported as 256 µg/mL and 512 µg/mL. For the same compound, the MIC (NCTC 13142 [2]; Staphylococcus aureus, NCTC13142, 24 h, NCTC 13142, 0 μM PNA, MHB, 35 °C, 24 h, scored visually, n=2) was at least 256 µg/mL.
For “KFFKFFKFFK-O-caatatcctc-CONH2 [A101, anti-mecA PNA (−10 to −1) conjugated to cell-penetrating peptide …]”, the “Oxacillin MIC with anti-mecA PNA treatment” value (HH-1 [1]; [8]) was 256 µg/mL and the “Oxacillin MIC with anti-mecA PNA treatment” value (NCTC 13142 [2]; [8]) was 512 µg/mL.
KFFKFFKFFK-O-cactataatc-CONH2 [scrA] was tested, and the “Sensitization to oxacillin (CFU reduction), result in words” value (HH-1 [3]) was “significant sensitization”, the “Sensitization to oxacillin (CFU reduction), result in words” value (NCTC 13142 [4]) was “did not have an effect” and the “Reduction of mecA transcripts” value (mecA mRNA [5]) was “did not have a significant effect”.
In the case of “KFFKFFKFFK-O-catcaatatc-CONH2 [A73, anti-mecA PNA (−7 to +3) conjugated to cell-penetrating peptide …]”, the “Oxacillin MIC with anti-mecA PNA treatment” value (HH-1 [1]; [8]) is reported as 64 µg/mL, the “Sensitization of broth cultures to oxacillin” value (HH-1 [1]; HH-1, 2.5–5 μM PNA, initial screening) is reported as 4–8 fold and the “mecA mRNA, result in words” value (mecA mRNA [6]; MRSA, 7.5 μM PNA, p < 0.05) is reported as “reduced”. The “Reduction of mecA transcripts” value (mecA mRNA [6]; NCTC 13142, 5 μM PNA, no oxacillin, normalized to pta and gyrA, average, n = 3) was 38%, the “MRSP cells killed by oxacillin” value (HH-1 [3]; 2.5 μM PNA, 6 h at 35 °C, plated on MH agar with 16 μg/ml oxacillin, relative to untreated control) was 92% and the “Sensitization to oxacillin (CFU reduction), result in words” value (HH-1 [3]) was “significantly sensitized”. For the same compound, the “MRSA cells killed by oxacillin” value (NCTC 13142 [4]; 7.5 μM PNA, 6 h at 35 °C, plated on MH agar with 16 μg/ml oxacillin, relative to untreated control) was 66%, the “Sensitization to oxacillin (CFU reduction), result in words” value (NCTC 13142 [4]) was “significantly sensitized” and the “Oxacillin MIC with anti-mecA PNA treatment” value (NCTC 13142 [2]; [8]) was 128 µg/mL. For the same compound, the “Sensitization of broth cultures to oxacillin” value (NCTC 13142 [2]; NCTC 13142, 2.5–5 μM PNA, initial screening) was 4–8 fold, the “Reduction of mecA transcripts” value (mecA mRNA [5]) was 40% and the “Reduction of mecA transcripts” value (mecA mRNA [5]; listed as Anti-mecA PNA) was “reduced”.
For “KFFKFFKFFK-eg1-TTCTAACATT-NH2 [Z19, anti-ftsZ PNA (−1 to +9) conjugated to the (KFF)3K peptide]”, the “Concentration that inhibited growth” value (NCTC 13142 [7]) was “ineffective”.
With “KFFKFFKFFK-eg1-atcaatatcc-CONH2 [A82, anti-mecA PNA (−8 to +2) conjugated to cell-penetrating peptide …]” the “Oxacillin MIC with anti-mecA PNA treatment” value (HH-1 [1]; [8]) was 256 µg/mL and the “Oxacillin MIC with anti-mecA PNA treatment” value (NCTC 13142 [2]; [8]) was 128 µg/mL.
In the case of “KFFKFFKFFK-eg1-ttcatcaata-CONH2 [A55, anti-mecA PNA (−5 to +5) conjugated to cell-penetrating peptide …]”, the “Oxacillin MIC with anti-mecA PNA treatment” value (HH-1 [1]; [8]) is reported as 512 µg/mL and the “Oxacillin MIC with anti-mecA PNA treatment” value (NCTC 13142 [2]; [8]) is reported as 256 µg/mL.
“MINWKLRLKNK-O-cactataatc-CONH2 [scrA-EJH, scrambled PNA conjugated to EJH-L1 peptide (…)]” was tested, and the “Sensitization to oxacillin in broth microdilution assays” value (HH-1 [1]) was “did not have an effect” and the “Sensitization to oxacillin in broth microdilution assays” value (NCTC 13142 [2]) was “did not have an effect”.
With “MINWKLRLKNK-O-catcaatatc-CONH2 [A73-EJH]” the “Sensitization to oxacillin in broth microdilution assays” value (HH-1 [1]) was 2 fold and the “Sensitization to oxacillin in broth microdilution assays” value (NCTC 13142 [2]) was 2 fold.
“YGRKKRRQRRR-O-cactataatc-CONH2 [scrA-Tat, scrambled PNA conjugated to HIV 1-Tat peptide (…)]” was tested, and the “Sensitization to oxacillin in broth microdilution assays” value (HH-1 [1]) was “did not have an effect” and the “Sensitization to oxacillin in broth microdilution assays” value (NCTC 13142 [2]) was “did not have an effect”.
“YGRKKRRQRRR-O-catcaatatc-CONH2 [A73-Tat]” was tested, and the “Sensitization to oxacillin in broth microdilution assays” value (HH-1 [1]) was 2 fold and the “Sensitization to oxacillin in broth microdilution assays” value (NCTC 13142 [2]) was 2 fold.
